# According to publication PMC8718961, “The CbbQO-type rubisco activases encoded in carboxysome gene clusters can activate carboxysomal form IA rubiscos” (The Journal of Biological Chemistry, 2021):
# Columns and labels:
# [1] = molecular target: T1, AfL2S2 (form IA^C carboxysomal rubisco) (Acidithiobacillus ferrooxidans, UniProt B7JB30, V471A/N472H/R473K); assay: spontaneous RuBP release from ER complex; type: biochemical; details: apoenzyme with RuBP; 25 °C; active site; printed as VNR C terminus substituted with AHK
# T1 construct: gene cbbL1; recombinant E. coli BL21(DE3); large and small subunits; anion exchange and size exclusion
# T1 sequence (B7JB30 whole entry V471A/N472H/R473K): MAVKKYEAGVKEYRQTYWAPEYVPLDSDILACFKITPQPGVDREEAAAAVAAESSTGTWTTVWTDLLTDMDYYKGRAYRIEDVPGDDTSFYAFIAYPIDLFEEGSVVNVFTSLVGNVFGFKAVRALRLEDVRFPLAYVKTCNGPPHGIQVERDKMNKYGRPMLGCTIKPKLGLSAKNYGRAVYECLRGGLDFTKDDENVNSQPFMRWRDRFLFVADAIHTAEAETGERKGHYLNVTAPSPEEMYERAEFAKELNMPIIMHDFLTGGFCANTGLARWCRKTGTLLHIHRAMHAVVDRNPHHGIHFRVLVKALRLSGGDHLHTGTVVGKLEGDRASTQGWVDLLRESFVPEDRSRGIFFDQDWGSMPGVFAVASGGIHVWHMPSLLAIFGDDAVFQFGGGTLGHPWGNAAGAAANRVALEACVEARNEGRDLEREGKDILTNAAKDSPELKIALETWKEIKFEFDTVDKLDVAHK
# T1 sequence (B7JB29 entry or part of it, stated change not applied, further chain): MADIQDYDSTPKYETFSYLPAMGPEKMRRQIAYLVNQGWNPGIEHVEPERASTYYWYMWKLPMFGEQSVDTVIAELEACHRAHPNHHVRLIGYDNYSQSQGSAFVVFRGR
# SynLS (form IB rubisco) = molecular target: T2, SynLS (form IB rubisco) (Synechococcus elongatus, UniProt P00880); assay: RuBP release rate from apo-rubisco-RuBP (ER) complex, carboxylation time course; type: biochemical; details: apoenzyme with 0.4 mM RuBP; assay 50 mM NaHCO3, 1 mM RuBP, 25 °C; active site
# T2 construct: gene cbbL; large and small subunits
# [2] = molecular target: T3, AfL2S2 (form IA^C carboxysomal rubisco) (Acidithiobacillus ferrooxidans, UniProt B7JB30); assay: as above; type: biochemical; details: apoenzyme with 0.4 mM RuBP; assay 50 mM NaHCO3, 1 mM RuBP, 25 °C; active site
# T3 construct: gene cbbL1; recombinant E. coli BL21(DE3); large and small subunits; anion exchange and size exclusion
# T3 sequence (B7JB30 whole entry): as the sequence (B7JB30 whole entry V471A/N472H/R473K) above, with A471V, H472N, K473R counted along it
# T3 sequence (B7JB29 1-110 partner): as the sequence (B7JB29 entry or part of it, stated change not applied, further chain) above
# [3] = molecular target: T4, HnLS (form IA^C carboxysomal rubisco) (Halothiobacillus neapolitanus, UniProt O85040); assay: as above; type: biochemical; details: apoenzyme with 0.4 mM RuBP; assay 50 mM NaHCO3, 1 mM RuBP, 25 °C; active site
# T4 construct: gene cbbL; recombinant E. coli BL21(DE3), pET30bHnLS (NdeI/HindIII); large and small subunits; anion exchange and size exclusion
# T4 sequence (O85040 whole entry): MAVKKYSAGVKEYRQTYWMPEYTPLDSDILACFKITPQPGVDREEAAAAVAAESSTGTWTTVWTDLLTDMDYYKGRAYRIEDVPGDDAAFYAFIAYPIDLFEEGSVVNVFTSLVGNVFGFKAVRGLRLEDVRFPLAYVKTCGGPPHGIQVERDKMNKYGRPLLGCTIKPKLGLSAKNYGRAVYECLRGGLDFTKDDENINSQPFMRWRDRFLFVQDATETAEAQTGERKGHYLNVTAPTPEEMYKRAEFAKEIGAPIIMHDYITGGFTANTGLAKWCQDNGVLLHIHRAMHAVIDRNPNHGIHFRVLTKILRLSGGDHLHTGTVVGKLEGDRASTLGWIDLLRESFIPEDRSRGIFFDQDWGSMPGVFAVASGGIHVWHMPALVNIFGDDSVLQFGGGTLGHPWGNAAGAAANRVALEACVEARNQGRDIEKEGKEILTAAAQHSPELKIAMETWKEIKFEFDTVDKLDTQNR
# T4 sequence (P45686 whole entry partner): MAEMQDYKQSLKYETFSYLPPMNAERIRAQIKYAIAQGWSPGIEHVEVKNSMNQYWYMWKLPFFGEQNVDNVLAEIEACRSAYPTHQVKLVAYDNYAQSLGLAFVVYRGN
# [4] = molecular target: T5, AfL1S1 (form IA^Q rubisco) (Acidithiobacillus ferrooxidans, UniProt B7JA24); assay: as above; type: biochemical; details: apoenzyme with 0.4 mM RuBP; assay 50 mM NaHCO3, 1 mM RuBP, 25 °C; active site
# T5 construct: gene cbbL2; recombinant E. coli BL21(DE3); large and small subunits; anion exchange and size exclusion
# T5 sequence (B7JA24 whole entry): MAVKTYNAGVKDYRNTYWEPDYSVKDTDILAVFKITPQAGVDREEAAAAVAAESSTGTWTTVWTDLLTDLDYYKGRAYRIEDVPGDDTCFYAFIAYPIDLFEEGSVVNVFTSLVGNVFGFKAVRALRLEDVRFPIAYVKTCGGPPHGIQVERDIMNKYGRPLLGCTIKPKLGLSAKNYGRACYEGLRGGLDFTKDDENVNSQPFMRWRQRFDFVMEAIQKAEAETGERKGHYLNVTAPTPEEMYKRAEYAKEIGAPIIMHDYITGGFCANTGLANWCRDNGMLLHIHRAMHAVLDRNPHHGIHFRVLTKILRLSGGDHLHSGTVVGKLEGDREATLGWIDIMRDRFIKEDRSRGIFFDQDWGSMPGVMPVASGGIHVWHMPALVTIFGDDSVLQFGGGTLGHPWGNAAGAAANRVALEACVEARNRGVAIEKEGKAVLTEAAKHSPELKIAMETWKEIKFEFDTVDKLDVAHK
# T5 sequence (B7JA25 1-118 partner): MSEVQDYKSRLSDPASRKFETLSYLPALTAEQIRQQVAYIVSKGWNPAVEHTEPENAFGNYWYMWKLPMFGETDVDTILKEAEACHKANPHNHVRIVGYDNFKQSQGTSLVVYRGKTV
# [5] = molecular target: T6, AfL2S2 (form IA^C carboxysomal rubisco) (Acidithiobacillus ferrooxidans, UniProt B7JB30, N472H); assay: spontaneous RuBP release from ER complex; type: biochemical; details: apoenzyme with RuBP; 25 °C; active site
# T6 construct: gene cbbL1; recombinant E. coli BL21(DE3); large and small subunits; anion exchange and size exclusion
# T6 sequence (B7JB30 whole entry N472H): as the sequence (B7JB30 whole entry V471A/N472H/R473K) above, with A471V, K473R counted along it
# T6 sequence (B7JB29 entry or part of it, stated change not applied, further chain): as the sequence (B7JB29 entry or part of it, stated change not applied, further chain) above
# [6] = molecular target: T7, AfQ1O1 (form IA^Q-associated CbbQO rubisco activase) (Acidithiobacillus ferrooxidans, UniProt B7JA26); assay: ATPase, coupled spectrophotometric assay; type: biochemical; details: 0.27 µM oligomer, 25 °C
# T7 construct: gene cbbQ-1; recombinant E. coli BL21(DE3), pHueAfCbbQ1 and pBad33UbAfcbbO1; CbbQ hexamer with CbbO; with CbbO protein (von Willebrand factor A domain, rubisco activase adaptor)
# T7 sequence (B7JA26 1-267): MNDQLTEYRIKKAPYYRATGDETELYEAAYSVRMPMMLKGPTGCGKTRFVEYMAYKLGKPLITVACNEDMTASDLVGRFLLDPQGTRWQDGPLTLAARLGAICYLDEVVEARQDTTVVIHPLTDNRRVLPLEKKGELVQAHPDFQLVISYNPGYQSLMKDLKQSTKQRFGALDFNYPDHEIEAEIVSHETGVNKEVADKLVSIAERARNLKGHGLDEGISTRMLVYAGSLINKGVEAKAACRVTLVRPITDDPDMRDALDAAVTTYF
# T7 sequence (B7JA27 1-772 partner): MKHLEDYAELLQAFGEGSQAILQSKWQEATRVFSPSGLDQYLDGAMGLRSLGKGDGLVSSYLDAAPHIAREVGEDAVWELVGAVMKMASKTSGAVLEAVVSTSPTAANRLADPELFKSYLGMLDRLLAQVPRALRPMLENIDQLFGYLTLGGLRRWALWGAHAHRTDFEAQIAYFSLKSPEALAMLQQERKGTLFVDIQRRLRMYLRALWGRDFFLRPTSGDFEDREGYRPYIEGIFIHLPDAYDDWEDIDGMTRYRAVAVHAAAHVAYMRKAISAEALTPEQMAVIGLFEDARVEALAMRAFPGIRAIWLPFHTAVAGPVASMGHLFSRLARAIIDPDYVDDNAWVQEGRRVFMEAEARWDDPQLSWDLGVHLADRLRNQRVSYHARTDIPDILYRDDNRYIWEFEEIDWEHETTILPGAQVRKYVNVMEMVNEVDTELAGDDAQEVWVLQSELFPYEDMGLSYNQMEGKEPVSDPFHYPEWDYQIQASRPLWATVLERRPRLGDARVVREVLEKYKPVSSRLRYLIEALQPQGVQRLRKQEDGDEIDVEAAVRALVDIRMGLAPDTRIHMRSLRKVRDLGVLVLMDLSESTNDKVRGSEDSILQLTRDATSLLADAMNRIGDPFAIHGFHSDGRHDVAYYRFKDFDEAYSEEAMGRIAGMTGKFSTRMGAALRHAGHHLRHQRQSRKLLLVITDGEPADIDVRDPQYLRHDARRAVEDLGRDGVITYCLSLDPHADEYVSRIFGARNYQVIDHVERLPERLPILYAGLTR
# [7] = molecular target: T8, AfQ3O3 (carboxysomal CbbQO rubisco activase) (Acidithiobacillus ferrooxidans, UniProt B7JB17); assay: ATPase, coupled spectrophotometric assay; type: biochemical; details: 0.27 µM oligomer, 25 °C
# T8 construct: gene p30; recombinant E. coli BL21(DE3), pHue and pBad33 (ubiquitin-type) vectors; CbbQ hexamer with CbbO; with CbbO protein (von Willebrand factor A domain, rubisco activase adaptor)
# T8 sequence (B7JB16 entry or part of it): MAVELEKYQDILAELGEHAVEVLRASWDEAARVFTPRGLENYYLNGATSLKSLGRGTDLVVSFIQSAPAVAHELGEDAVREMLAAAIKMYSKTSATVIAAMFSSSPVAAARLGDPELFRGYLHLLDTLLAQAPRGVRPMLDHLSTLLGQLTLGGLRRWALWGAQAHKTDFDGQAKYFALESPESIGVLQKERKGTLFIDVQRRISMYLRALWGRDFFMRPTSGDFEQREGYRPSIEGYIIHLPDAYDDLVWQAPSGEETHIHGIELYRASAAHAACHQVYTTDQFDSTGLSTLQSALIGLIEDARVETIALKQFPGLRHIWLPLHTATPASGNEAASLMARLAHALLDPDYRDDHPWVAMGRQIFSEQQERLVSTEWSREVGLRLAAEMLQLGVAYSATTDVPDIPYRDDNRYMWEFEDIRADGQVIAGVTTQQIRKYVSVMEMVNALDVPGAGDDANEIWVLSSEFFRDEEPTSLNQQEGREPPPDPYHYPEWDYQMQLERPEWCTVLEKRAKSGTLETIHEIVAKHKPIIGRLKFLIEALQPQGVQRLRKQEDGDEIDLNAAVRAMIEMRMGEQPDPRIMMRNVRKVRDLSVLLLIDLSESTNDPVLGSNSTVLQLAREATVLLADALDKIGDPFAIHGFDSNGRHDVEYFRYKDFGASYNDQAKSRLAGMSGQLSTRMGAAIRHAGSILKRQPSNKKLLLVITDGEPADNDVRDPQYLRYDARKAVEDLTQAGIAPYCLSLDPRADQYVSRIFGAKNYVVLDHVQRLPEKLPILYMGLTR
# T8 sequence (B7JB17 entry or part of it): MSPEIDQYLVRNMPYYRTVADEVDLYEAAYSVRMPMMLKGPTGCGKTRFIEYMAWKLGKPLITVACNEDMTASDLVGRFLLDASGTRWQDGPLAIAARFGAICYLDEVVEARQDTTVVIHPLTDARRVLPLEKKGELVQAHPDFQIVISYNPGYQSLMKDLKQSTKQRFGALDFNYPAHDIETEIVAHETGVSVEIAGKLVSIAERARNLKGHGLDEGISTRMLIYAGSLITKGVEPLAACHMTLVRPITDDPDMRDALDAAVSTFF
# [8] = molecular target: A. ferrooxidans carboxysomal form IA^C rubisco with N472H in the large subunit (Acidithiobacillus ferrooxidans ATCC23270)
# [9] = molecular target: A. ferrooxidans carboxysomal form IA^C rubisco with the last three residues of the large subunit changed from VNR to AHK (Acidithiobacillus ferrooxidans ATCC23270)
# [10] = molecular target: A. ferrooxidans carboxysomal form IA^C rubisco with N472H in the large subunit (Acidithiobacillus ferrooxidans ATCC23270); remark: listed apart in the source
# [11] = molecular target: A. ferrooxidans carboxysomal form IA^C rubisco with the last three residues of the large subunit changed from VNR to AHK (Acidithiobacillus ferrooxidans ATCC23270); remark: listed apart in the source
# [12] = molecular target: T4, HnLS (form IA^C carboxysomal rubisco); assay: inhibited ECM-CABP (ECMC) complex, reactivation by CbbQO activase, coupled spectrophotometric rubisco assay; type: biochemical; details: 20 mM NaHCO3, Mg2+, 25 °C; PEG 3350; active site, tight-binding transition-state analog
# [13] = molecular target: T1, AfL2S2 (form IA^C carboxysomal rubisco); assay: as above; type: biochemical; details: 20 mM NaHCO3, Mg2+, 25 °C; PEG 3350; active site, tight-binding transition-state analog; printed as VNR C terminus substituted with AHK
# [14] = molecular target: T3, AfL2S2 (form IA^C carboxysomal rubisco); assay: as above; type: biochemical; details: 20 mM NaHCO3, Mg2+, 25 °C; PEG 3350; active site, tight-binding transition-state analog
# [15] = molecular target: T6, AfL2S2 (form IA^C carboxysomal rubisco); assay: as above; type: biochemical; details: 20 mM NaHCO3, Mg2+, 25 °C; PEG 3350; active site, tight-binding transition-state analog
molecule,measurement,setting,value
"O=C(COP(=O)(O)O)[C@H](O)[C@H](O)COP(=O)(O)O [ribulose 1,5-bisphosphate]",spontaneous RuBP release from ER complex,[1],displayed similar carboxylation kinetics and spontaneous RuBP release under our assay conditions
same,RuBP release rate,SynLS (form IB rubisco),the very loose RuBP-binding phenotype of the cyanobacterial form IB SynLS rubisco
same,RuBP release rate,[2],The RuBP release rate was derived from the ER time courses
same,RuBP release rate,[3],The RuBP release rate was derived from the ER time courses
same,RuBP release rate,[4],(AfL1S1) formed a stable binary complex with RuBP and had the slowest inhibitor release rate
same,spontaneous RuBP release from ER complex,[5],displayed similar carboxylation kinetics and spontaneous RuBP release under our assay conditions
Nc1ncnc2c1ncn2[C@@H]1O[C@H](COP(=O)(O)OP(=O)(O)OP(=O)(O)O)[C@@H](O)[C@H]1O [ATP],"ATPase, coupled spectrophotometric assay",[6],The ATPase activity of the purified AfQ3O3 complex was similar to that of the AfQ1O1
same,"ATPase, coupled spectrophotometric assay",[7],The ATPase activity of the purified AfQ3O3 complex was similar to that of the AfQ1O1
"A. ferrooxidans CbbQ3-CbbO3 rubisco activase complex (carboxysomal, form IA^C associated)","Rca activity: activation of CABP-inhibited rubisco (ECMC), coupled spectrophotometric rubisco assay, 13% v/v PEG, 20 mM NaHCO3; against wildtype AfL2S2",[8],30 % increase
same,"Rca activity: activation of CABP-inhibited rubisco (ECMC), coupled spectrophotometric rubisco assay, 13% v/v PEG, 20 mM NaHCO3; against wildtype AfL2S2",[9],60 % reduction
A. ferrooxidans CbbQ1-CbbO1 rubisco activase complex (form IA^Q associated),"Rca activity: activation of CABP-inhibited rubisco (ECMC), coupled spectrophotometric rubisco assay, 5% v/v PEG, 20 mM NaHCO3; against wildtype AfL2S2",[10],6 fold
same,"Rca activity: activation of CABP-inhibited rubisco (ECMC), coupled spectrophotometric rubisco assay, 5% v/v PEG, 20 mM NaHCO3; against wildtype AfL2S2",[11],6 fold
"O=C(O)[C@@](O)(COP(=O)(O)O)[C@H](O)[C@H](O)COP(=O)(O)O (mixture of isomers) [carboxy-arabinitol 1,5-bisphosphate]","inhibited ECM-CABP (ECMC) complex, reactivation by CbbQO activase, coupled spect",[12],HnQO was able to remove CABP from its cognate form IA^C rubisco HnLS
same,"inhibited ECM-CABP (ECMC) complex, reactivation by CbbQO activase, coupled spect",[13],mutation at the C terminus of AfL2S2 enhances activation of ECMC complexes by Q1O1
same,"inhibited ECM-CABP (ECMC) complex, reactivation by CbbQO activase, coupled spect",[14],ability to remove the transition state analog CABP from the A. ferrooxidans form IA^C (AfL2S2) holoenzyme
same,"inhibited ECM-CABP (ECMC) complex, reactivation by CbbQO activase, coupled spect",[15],mutation at the C terminus of AfL2S2 enhances activation of ECMC complexes by Q1O1
